Results taken from ChEMBL document CHEMBL1201862, “PubChem BioAssay data set” (2004).
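A five-concentration, 48-hour dose response in 96-well plates underlies each endpoint, interpolated linearly between surrounding concentrations. At the GI50, growth is halved.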 Active and inactive are the calls of the source. No stated cut-off is given here; in the data, active = GI50 up to about 1.1 µM and inactive = higher.

Legend:
Experiment in all cases: NCI anticancer screen, dose series, 48 h
[1] = test system: U-251
[2] = test system: LOX IMVI
[3] = test system: HCT-116
[4] = test system: NCI-H460
[5] = test system: MDA-N
[6] = test system: HL-60
[7] = test system: MOLT-4
[8] = test system: OVCAR-4
[9] = test system: K562
[10] = test system: UACC-257
[11] = test system: SF-268
[12] = test system: HT-29
[13] = test system: TK-10
[14] = test system: SW-620
[15] = test system: SF-539
[16] = test system: COLO 205
[17] = test system: SF-295

Measured: GI50

COc1cccc(/C=N/NC(=O)CN(C)C)c1O
inactive: [1] > 100 µM | [2] > 100 µM | [3] > 100 µM | [4] > 100 µM | [5] > 100 µM | [6] > 100 µM | [7] > 100 µM | [8] > 100 µM | [9] > 100 µM | [10] > 100 µM | [11] > 100 µM | [12] > 100 µM | [13] > 100 µM | [14] > 100 µM | [15] > 100 µM | [16] > 100 µM | [17] > 100 µM

N[C@@H]1c2c(Br)sc(Br)c2[C@H](O)[C@@H]1O
inactive: [1] > 100 µM | [2] > 100 µM | [3] > 100 µM | [4] > 100 µM | [5] > 100 µM | [6] > 100 µM | [7] > 100 µM | [8] > 100 µM | [9] > 100 µM | [10] > 100 µM | [11] > 100 µM | [12] > 100 µM | [13] > 100 µM | [14] > 100 µM | [15] > 100 µM | [16] > 100 µM | [17] > 100 µM

CCOC(=O)c1nc2ccccc2nc1Oc1ccc(OC)cc1
inactive: [1] > 100 µM | [2] > 100 µM | [3] > 100 µM | [4] > 100 µM | [5] > 100 µM | [6] > 100 µM | [7] > 100 µM | [8] > 100 µM | [9] > 100 µM | [10] > 100 µM | [11] > 100 µM | [12] > 100 µM | [13] > 100 µM | [14] > 100 µM | [15] > 100 µM | [16] > 100 µM | [17] > 100 µM

CCC1(C(=O)OC(C)(C)C)OC12C(C)CCCC2C (configuration not stated)
inactive: [1] 42.9 µM | [2] 32.1 µM | [3] 52.8 µM | [4] 31.9 µM | [5] 56.8 µM | [6] 17.8 µM | [7] 18.7 µM | [8] 28.1 µM | [9] 21.8 µM | [10] 31 µM | [11] 43.1 µM | [12] 39.5 µM | [13] 41.3 µM | [14] 29.5 µM | [15] > 100 µM | [16] 23.9 µM | [17] 38.4 µM

O=C1CCSSCCC(=O)NCCN1
inactive: [1] > 100 µM | [2] > 100 µM | [3] > 100 µM | [4] > 100 µM | [5] > 100 µM | [6] > 100 µM | [7] > 100 µM | [8] > 100 µM | [9] > 100 µM | [10] > 100 µM | [11] > 100 µM | [12] > 100 µM | [13] > 100 µM | [14] > 100 µM | [15] > 100 µM | [16] > 100 µM | [17] > 100 µM

COc1ccc(CC2COc3cc(OC)cc(OC)c3C2=O)cc1 (configuration not stated)
inactive: [1] 37 µM | [2] 34.5 µM | [3] 15.3 µM | [4] 29.6 µM | [5] 3.76 µM | [6] 13.2 µM | [7] 30.3 µM | [8] 17.2 µM | [9] 31 µM | [10] 32.5 µM | [11] 32.7 µM | [12] 17.6 µM | [13] 21.3 µM | [14] 29.8 µM | [15] 14.4 µM | [16] 14.8 µM | [17] 17.5 µM
